This passage reports IC50 results from US20160108027A1, “SUBSTITUTED BENZOXAZOLES” (BAYER PHARMA AKTIENGESELLSCHAFT, priority 2013, published 2016).

The target of assay [1] is T1, thrombin (Homo sapiens, UniProt P00734). Description: Measurement of the thrombin inhibition in buffer. In kind it is biochemical. The settings on record: human thrombin 0.06 nmol/l in Tris buffer pH 7.4, 22° C., substrate Boc-Asp(OBzl)-Pro-Arg-AMC; in some cases means of individual determinations. The protocol: To determine the thrombin inhibition of the substances listed above, a biochemical test system is constructed in which the conversion of a thrombin substrate is used for determining the enzymatic activity of human thrombin. Here, thrombin cleaves aminomethylcoumarin, which is measured fluorescently, from the peptic substrate. The determinations are carried out in microtitre plates.
Substances to be tested are dissolved in various concentrations in dimethyl sulphoxide and incubated for 15 min with human thrombin (0.06 nmol/l dissolved in 50 mmol/l of Tris buffer [C,C,C-tris(hydroxymethyl)aminomethane], 100 mmol/l of sodium chloride, 0.1% BSA [bovine serum albumin], pH 7.4) at 22° C. The substrate (5 μmol/l Boc-Asp(OBzl)-Pro-Arg-AMC from Bachem) is then added. After 30 min of incubation, the sample is excited at a wavelength of 360 nm and the emission is measured at 460 nm. The measured emissions of the test mixtures with test substance are compared to the control mixtures without test substance (only dimethyl sulphoxide instead of test substance in dimethyl sulphoxide) and IC50 values are calculated from the concentration/activity relationships. Representative activity data from this test are given in Table 1 below (in some cases as means of individual determinations): […]

Assay [2] concerns the target T1, thrombin. Description: Determination of the thrombin-inhibitory activity in plasma samples (ecarin-activated). In kind it is biochemical. The conditions noted are these: citrate plasma, ecarin activation, fluorogenic thrombin substrate; in some cases means of individual determinations. As to the method:
To determine the inhibition of thrombin in plasma samples, plasma […] is activated by ecarin. Thrombin activity and/or its inhibition by potential inhibitors is/are then measured fluorenscently by addition of a substrate.
The substances to be tested are dissolved in various concentrations in dimethyl sulphoxide and diluted with water. In white 96-well flat-bottomed plates, 20 μl of substance dilution are mixed with 20 μl of ecarin solution (ecarin reagent, from Sigma E-0504, final concentration 20 mU per reaction) in Ca buffer (200 mM Hepes+560 mM sodium chloride+10 mM calcium chloride+0.4% PEG) or with 20 μl of Ca buffer (as unstimulated control). Furthermore, 20 μl of fluorogenic thrombin substrate (from Bachem 1-1120, final concentration 50 μmol/1) and 20 μl of citrate plasma (from Octapharma) are added, and the mixture is homogenized well. The plate is measured in a SpectraFluorplus Reader using a 360 nm excitation filter and a 465 nm emission filter every minute over 20 minutes. […] Representative activity data from this test are given in Table 2 below (in some cases as means of individual determinations): […]

Structures are written as SMILES.

In the case of `COc1cc(C(=O)N2CCCC2(C)C(=O)N2CC(F)(F)C2)cc2nc(NCc3cc(Cl)ccn3)oc12` (single isomer, unassigned) [Example 16, (2-{[(4-Chloropyridin-2-yl)methyl]amino}-7-methoxy-1,3-benzoxazol-5-yl){2-[(3,3-difluoroazetidin-1-yl)carbonyl]-2-methylpyrrolidin-1-yl}methanone], the IC50 turned out to be 30 nM in assay [1] and 36 nM in assay [2].
Taken in the same sequence, the figures for `COc1cc(C(=O)N2CCCC2(C)C(=O)N2CC(F)C2)cc2nc(NCc3cc(Cl)ccn3)oc12` (single isomer, unassigned) [Example 17, (2-{[(4-Chloropyridin-2-yl)methyl]amino}-7-methoxy-1,3-benzoxazol-5-yl){2-[(3-fluoroazetidin-1-yl)carbonyl]-2-methylpyrrolidin-1-yl}methanone] were 33 nM and 52 nM.
In the same order, the values of `COc1cc(C(=O)N2CCCC2(C)C(=O)N2CCOCC2)cc2nc(NCc3cc(Cl)ccn3)oc12` (single isomer, unassigned) [Example 18, (2-{[(4-Chloropyridin-2-yl)methyl]amino}-7-methoxy-1,3-benzoxazol-5-yl) [2-methyl-2-(morpholin-4-ylcarbonyl)pyrrolidin-1-yl]methanone] are 17 nM and 27 nM.
In the same order, the values of `COc1cc(C(=O)N2CC(C)OCC2(C)CO)cc2nc(NCc3cc(Cl)ccn3)oc12` (single isomer, unassigned) [Example 19, (2-{[(4-Chloropyridin-2-yl)methyl]amino}-7-methoxy-1,3-benzoxazol-5-yl) [5-(hydroxymethyl)-2,5-dimethylmorpholin-4-yl]methanone] are 34 nM and 53 nM.
`COc1cc(C(=O)N2CC(C)OCC2(C)CO)cc2nc(NCc3cc(Cl)ccn3)oc12` (single isomer, unassigned) [Example 20, (2-{[(4-Chloropyridin-2-yl)methyl]amino}-7-methoxy-1,3-benzoxazol-5-yl) [5-(hydroxymethyl)-2,5-dimethylmorpholin-4-yl]methanone]: the IC50 in assay [1] is 36 nM; in assay [2], 66 nM.
For the compound `COc1cc(C(=O)N2CC(C)(CC(C)O)OCC2CF)cc2nc(NCc3cc(Cl)ccn3)oc12` (single isomer, unassigned) [Example 23, (2-{[(4-Chloropyridin-2-yl)methyl]amino}-7-methoxy-1,3-benzoxazol-5-yl) [5-(fluoromethyl)-2-(2-hydroxypropyl)-2-methylmorpholin-4-yl]methanone], the IC50 in assay [1] was determined as 0.8 nM; in assay [2] it was 6.5 nM.
Turning to `COc1cc(C(=O)N2CC(C)(CCO)OC[C@H]2C)cc2nc(NCc3cc(Cl)ccn3)oc12` (single isomer, unassigned) [Example 24], the IC50 stood at 2.5 nM in assay [1] and 12 nM in assay [2].
In the same order, the values of `COc1cc(C(=O)N2CC(C)(CC(C)O)OC[C@H]2C)cc2nc(NCc3cc(Cl)ccn3)oc12` (single isomer, unassigned) [Example 25] are 1 nM and 6.8 nM.
In the same order, the values of `COc1cc(C(=O)N2CC(C)(CC(C)O)OC[C@H]2C)cc2nc(NC(C)c3cc(Cl)ccn3)oc12` (single isomer, unassigned) [Example 27] are 2.1 nM and 7.6 nM.
In the case of `CC[C@@H]1COC(C)(CCO)CN1C(=O)c1cc(OC)c2oc(NCc3cc(Cl)ccn3)nc2c1` (single isomer, unassigned) [Example 29], the IC50 was 1.9 nM in assay [1] and 8.8 nM in assay [2].
Taken in the same sequence, the figures for `COCC1COC(C)(CCO)CN1C(=O)c1cc(OC)c2oc(NCc3cc(Cl)ccn3)nc2c1` (single isomer, unassigned) [Example 31] were 11 nM and 34 nM.
In the same order, the values of `COc1cc(C(=O)N2CC(C)(CCO)OCC2(C)C)cc2nc(NCc3cc(Cl)ccn3)oc12` (single isomer, unassigned) [Example 33, (2-{[(4-Chloropyridin-2-yl)methyl]amino}-7-methoxy-1,3-benzoxazol-5-yl) [2-(2-hydroxyethyl)-2,5,5-trimethylmorpholin-4-yl]methanone] are 7.2 nM and 14 nM.
Taken in the same sequence, the figures for `COc1cc(C(=O)N2CC(C)(CC(C)O)OCC2(C)C)cc2nc(NCc3cc(Cl)ccn3)oc12` (single isomer, unassigned) [Example 35, (2-{[(4-Chloropyridin-2-yl)methyl]amino}-7-methoxy-1,3-benzoxazol-5-yl) [2-(2-hydroxypropyl)-2,5,5-trimethylmorpholin-4-yl]methanone] were 5 nM and 71 nM.
For the compound `COc1cc(C(=O)N2CC(C)OCC2C(C)(C)O)cc2nc(NCc3cc(Cl)ccn3)oc12` (single isomer, unassigned) [Example 36, (2-{[(4-Chloropyridin-2-yl)methyl]amino}-7-methoxy-1,3-benzoxazol-5-yl) [5-(2-hydroxypropan-2-yl)-2-methylmorpholin-4-yl]methanone], the IC50 in assay [1] is 39 nM; in assay [2], 57 nM.
Taken in the same sequence, the figures for `COc1cc(C(=O)N2CC(C)OCC2C(C)(C)O)cc2nc(NCc3cc(Cl)ccn3)oc12` (single isomer, unassigned) [Example 37, (2-{[(4-Chloropyridin-2-yl)methyl]amino}-7-methoxy-1,3-benzoxazol-5-yl) [5-(2-hydroxypropan-2-yl)-2-methylmorpholin-4-yl]methanone] were 37 nM and 44 nM.
In the same order, the values of `COc1cc(C(=O)N2CC(C)(C)OCC2(C)CO)cc2nc(NCc3cc(Cl)ccn3)oc12` (single isomer, unassigned) [Example 39, (2-{[(4-Chloropyridin-2-yl)methyl]amino}-7-methoxy-1,3-benzoxazol-5-yl) [5-(hydroxymethyl)-2,2,5-trimethylmorpholin-4-yl]methanone] are 11 nM and 40 nM.
In the same order, the values of `COc1cc(C(=O)N2CC(C)(C)OCC2(C)CO)cc2nc(NCc3cc(Cl)ccn3)oc12` (single isomer, unassigned) [Example 40, (2-{[(4-Chloropyridin-2-yl)methyl]amino}-7-methoxy-1,3-benzoxazol-5-yl) [5-(hydroxymethyl)-2,2,5-trimethylmorpholin-4-yl]methanone] are 18 nM and 33 nM.
`COc1cc(C(=O)N2CC(C)(C)OCC2CF)cc2nc(NCc3cc(Cl)ccn3)oc12` (single isomer, unassigned) [Example 43, (2-{[(4-Chloropyridin-2-yl)methyl]amino}-7-methoxy-1,3-benzoxazol-5-yl) [5-(fluoromethyl)-2,2-dimethylmorpholin-4-yl]methanone]: the IC50 in assay [1] came out at 18 nM; in assay [2] it was 17 nM.
In the same order, the values of `COc1cc(C(=O)N2CC(C)OCC2(C)C)cc2nc(NCc3cc(Cl)ccn3)oc12` (single isomer, unassigned) [Example 45, (2-{[(4-Chloropyridin-2-yl)methyl]amino}-7-methoxy-1,3-benzoxazol-5-yl)(2,5,5-trimethylmorpholin-4-yl)methanone] are 24 nM and 41 nM.
For `COc1cc(C(=O)N2CC(C)OCC2C2CC(O)C2)cc2nc(NCc3cc(Cl)ccn3)oc12` (single isomer, unassigned) [Example 47, (2-{[(4-Chloropyridin-2-yl)methyl]amino}-7-methoxy-1,3-benzoxazol-5-yl) [5-(3-hydroxycyclobutyl)-2-methylmorpholin-4-yl]methanone], the IC50 is 11 nM in assay [1] and 24 nM in assay [2].
For `COc1cc(C(=O)N2CC(C)OCC2C2CC(O)C2)cc2nc(NCc3cc(Cl)ccn3)oc12` (single isomer, unassigned) [Example 48, (2-{[(4-Chloropyridin-2-yl)methyl]amino}-7-methoxy-1,3-benzoxazol-5-yl) [5-(3-hydroxycyclobutyl)-2-methylmorpholin-4-yl]methanone], the IC50 turned out to be 11 nM in assay [1] and 16 nM in assay [2].
In the same order, the values of `COc1cc(C(=O)N2CC(C)OCC2C2CC(O)C2)cc2nc(NCc3cc(Cl)ccn3)oc12` (single isomer, unassigned) [Example 49, (2-{[(4-Chloropyridin-2-yl)methyl]amino}-7-methoxy-1,3-benzoxazol-5-yl) [5-(3-hydroxycyclobutyl)-2-methylmorpholin-4-yl]methanone] are 24 nM and 53 nM.
